Test results: patent USRE37781E1, “Substituted cyclic carbonyls and derivatives thereof useful as retroviral protease inhibitors” (DuPont Pharmaceuticals Company, priority 1991, dated 2002)
Read-outs that look alike come from different tables or passages of the source.

Biological target: single-chain tethered dimer of HIV protease (Human immunodeficiency virus 1, UniProt P04585)
Test: biochemical
Type: biochemical
Parameters: fused on or other part: A second copy of the same protease unit is joined to the first by a short peptide tether, giving one polypeptide
Experimental: HIV Protease Inhibition Assay—HPLC Method
Active protease was prepared as described therein by extraction with 67% acetic acid, dilution 33-fold with water, dialysis against water and then against a “refolding buffer” consisting of 20 mM MES, 1 mM dithiothreitol and 10% glycerol. Protease was stored as a stock preparation at 10 uM in refolding buffer.
Substrate: Peptide of sequence: aminobenzoyl-Ala-Thr-His-Gln-Val-Tyr-Phe(NO2)-Val-Arg-Lys-Ala containing p-nitrophenylalanine, was prepared by solid phase synthesis as previously described Cheng et al., op.cit. Stock solutions of 2 mM substrate were prepared in DMSO.
Inhibitory compounds were dissolved in sufficient DMSO to make 3 mM stock solutions. All further dilutions were prepared in “assay buffer”: 1M NaCl, 50 mM MES, pH 5.5, 1 mM EDTA, 1 mM DTT, […] glycerol.
Enzyme reaction: In a 2 ml screw-cap centrifuge tube were added 50 ul protease (final concentration 0.25 nM) and 0.1 ml inhibitory compound (final concentration […]). After 15 min preincubation at room temperature, the reaction was started with the addition of 0.05 ml substrate (final concentration 5 uM). Incubation was carried out at 30 C. for 1 hr. The reaction was stopped with 1 ml 0.1M ammonium hydroxide.
HPLC measurement of product formation: The product (aminobenzoyl-Ala-Thr-His-Gln-Val-Tyr) was separated from substrate on a Pharmacia MonoQ anion exchange column. The injection volume was 0.2 ml. The mobile phases were: A (20 mM trisHCl, pH 9.0, 0.02% sodium Azide, 10% acetonitrile), B (20 mM tris HCl, pH 9.0, 0.02% sodium azide, 0.5M ammonium formate, 10% acetonitrile). The mobile phases were pumped at 1 ml/min, with a gradient from 0 to 30% B in 5 min, 100% B for 4 min to wash the column, and a re-equilibration for 4 min. The retention time of the product was 3.6 min. Detection with a Shimadzu model RF535 fluorescence monitor was at 330 nm (excitation) and 430 (emission).

[1] = Table 2d, class symbols, read-out: HPLC K1
[2] = read-out: HPLC Ki, Table 1d, lower part
[3] = Table 2d, HIV protease inhibition, HPLC method, read-out: HPLC K1
[4] = read-out: HPLC K1, Table 2d, class symbols
[5] = HIV protease inhibition, HPLC method, Table 2d, read-out: HPLC K1

O=C1NC(Cc2ccccc2)C(O)C(O)C(Cc2ccccc2)N1CC1CC1CCCO (stereo not shown) [Example 13A]
Ki [1]: 10 to 1000 nM

O=C1N(CC2CC2)C(Cc2ccccc2)c2ncoc2C(Cc2ccccc2)N1CC1CC1 (stereo not shown) [Example 7AD]
Ki [2]: 10 to 1000 nM

CC(C)C1C(O)C(O)C(C(C)C)N(CC2CC2)C(=O)N1CC1CC1 (stereo not shown) [Example 16D]
Ki (read-out: K4 HPLC, Table 2e): 10 to 1000 nM

C=CCN1C(=O)N(CC=C)C(CCCCCC)C(O)C(O)C1CCCCCC (stereo not shown) [Example 16AQ]
Ki (Table 2e, read-out: K4 HPLC): > 1000 nM

CC(C)CC1C(O)C(O)C(CC(C)C)N(Cc2ccccc2)C(=O)N1Cc1ccccc1 (stereo not shown) [Example 16Z]
Ki (Table 2e, read-out: K4 HPLC): 10 to 1000 nM

COc1ccc(CC2C(O)C(O)C(Cc3ccc(OC)cc3)N(CC3CC3)C(=O)N2CC2CC2)cc1 (stereo not shown) [20AF]
Ki (Table 2i, read-out: HPLC Ki): < 10 nM

COc1cccc(CN2C(=O)N(Cc3cccc(OC)c3)C(Cc3ccccc3OC)C(O)C(O)C2Cc2ccccc2OC)c1 (stereo not shown) [Example 16R]
Ki (Table 2e, read-out: K4 HPLC): 10 to 1000 nM

O=C1N(Cc2ccc3nnn(O)c3c2)C(Cc2ccccc2)C(O)C(O)C(Cc2ccccc2)N1Cc1ccc2nnn(O)c2c1 (stereo not shown) [15CU]
Ki [3]: 10 to 1000 nM

O=C1N(Cc2ccccc2)[C@H](Cc2ccc(O)cc2)[C@H](O)[C@@H](O)[C@@H](Cc2ccc(O)cc2)N1Cc1ccccc1 [20AK]
Ki (Table 2i, read-out: HPLC Ki): < 10 nM

O=C1N(Cc2ccccc2)C(Cc2ccccc2)C(O)C(O)C(Cc2ccccc2)N1Cc1ccccc1 (stereo not shown) [Example 13Y]
Ki [4]: > 1000 nM

COc1ccc(CC2C(O)C(O)C(Cc3ccc(OC)cc3)N(Cc3ccc4ccccc4c3)C(=O)N2Cc2ccc3ccccc3c2)cc1 (stereo not shown) [20AH]
Ki (Table 2i, read-out: HPLC Ki): < 10 nM

O=C1N(Cc2ccccc2)C(CCCCO)C(O)C(O)C(CCCCO)N1Cc1ccccc1 (stereo not shown) [Example 16AO]
Ki (Table 2e, read-out: K4 HPLC): > 1000 nM

COC1C(O)C(Cc2ccccc2)N(CC2CC2)C(=O)N(CC2CC2)C1Cc1ccccc1 (stereo not shown) [Example 7AE]
Ki [2]: 10 to 1000 nM

C=CCCC1C(O)C(O)C(CCC=C)N(CC=C)C(=O)N1CC=C (stereo not shown) [Example 16AS]
Ki (Table 2e, read-out: K4 HPLC): > 1000 nM

O=C1N(c2ccccc2)C(Cc2ccccc2)C(O)C(O)C(Cc2ccccc2)N1c1ccccc1 (stereo not shown) [Example 14G]
Ki [4]: 10 to 1000 nM

CNc1noc2ccc(CN3C(=O)N(Cc4ccc5onc(NC)c5c4)C(Cc4ccccc4)C(O)C(O)C3Cc3ccccc3)cc12 (stereo not shown) [15DK]
Ki [3]: < 10 nM

O=C1N(CC2CC2)C(Cc2cccs2)C(O)C(O)C(Cc2cccs2)N1CC1CC1 (stereo not shown) [16O]
Ki (Table 2e, read-out: K4 HPLC): < 10 nM

C=CCCCC1C(O)C(O)C(CCCC=C)N(Cc2ccccc2)C(=O)N1Cc1ccccc1 (stereo not shown) [Example 16AL]
Ki (Table 2e, read-out: K4 HPLC): > 1000 nM

O=C1N(CC2CC2)C(Cc2ccc(F)cc2)C(O)C(O)C(Cc2ccc(F)cc2)N1CC1CC1 (stereo not shown) [20H]
Ki (read-out: HPLC Ki, Table 2i): < 10 nM

O=C1N(CC2CC2)C(Cc2ccccc2)C(OCc2ccccc2)C(OCc2ccccc2)C(Cc2ccccc2)N1CC1CC1 (stereo not shown) [Example 7AG]
Ki [2]: > 1000 nM

O=C1N(Cc2cccc(-c3nc4ccccc4[nH]3)c2)C(Cc2ccccc2)C(O)C(O)C(Cc2ccccc2)N1Cc1cccc(-c2nc3ccccc3[nH]2)c1 (stereo not shown) [15AX]
Ki [3]: 10 to 1000 nM

Cc1cncc(OCc2ccccc2)c1CN1C(=O)N(Cc2c(C)cncc2OCc2ccccc2)C(Cc2ccccc2)C(O)C(O)C1Cc1ccccc1 (stereo not shown) [Example 14J]
Ki [1]: 10 to 1000 nM

CSCCC1C(O)C(O)C(CCSC)N(Cc2ccccc2)C(=O)N1Cc1ccccc1 (stereo not shown) [Example 16AA]
Ki (Table 2e, read-out: K4 HPLC): > 1000 nM

COc1ccccc1CC1C(O)C(O)C(Cc2ccccc2OC)N(Cc2ccccc2)C(=O)N1Cc1ccccc1 (stereo not shown) [Example 16T]
Ki (Table 2e, read-out: K4 HPLC): 10 to 1000 nM

O=C1NC(Cc2ccccc2)C(O)C(O)C(Cc2ccccc2)N1CC1CC1c1ccccc1 (stereo not shown) [Example 14I]
Ki [1]: 10 to 1000 nM

NC(Cc1ccccc1)C(=O)Nc1cccc(CN2C(=O)N(Cc3cccc(NC(=O)C(N)Cc4ccccc4)c3)C(Cc3ccccc3)C(O)C(O)C2Cc2ccccc2)c1 (stereo not shown) [15V]
Ki [1]: < 10 nM

O=C1N(CC2CC2)C(Cc2ccccc2)C(O)C(OCc2ccccc2)C(Cc2ccccc2)N1CC1CC1 (stereo not shown) [Example 7AH]
Ki [2]: > 1000 nM

CCCCCC#CCN1C(=O)N(CC#CCCCCC)C(Cc2ccccc2)C(O)C(O)C1Cc1ccccc1 (stereo not shown) [Example 14E]
Ki [4]: 10 to 1000 nM

CSCCC1C(O)C(O)C(CCSC)N(CC2CC2)C(=O)N1CC1CC1 (stereo not shown) [Example 16AB]
Ki (Table 2e, read-out: K4 HPLC): > 1000 nM

O=C1N(Cc2cccc(O)c2)C(Cc2ccc(F)cc2)C(O)C(O)C(Cc2ccc(F)cc2)N1Cc1cccc(O)c1 (stereo not shown) [Example 20G]
Ki (read-out: HPLC Ki, Table 2i): < 10 nM

C=CCN1C(=O)N(CC=C)C(C)C(O)C(O)C1C (stereo not shown) [Example 16E]
Ki (read-out: K4 HPLC, Table 2e): > 1000 nM

CC(CCCN1C(=O)N(CCCC(C)n2ccnc2)[C@H](Cc2ccccc2)[C@H](O)[C@@H](O)[C@H]1Cc1ccccc1)n1ccnc1 (stereo partly shown) [15FK]
Ki [5]: > 1000 nM

CN(C)CCNC(=O)c1cccc(CN2C(=O)N(Cc3cccc(C(=O)NCCN(C)C)c3)C(Cc3ccccc3)C(O)C(O)C2Cc2ccccc2)c1 (stereo not shown) [15XV]
Ki [3]: < 10 nM

CSCCC1C(O)C(O)C(CCSC)N(Cc2ccc(CO)cc2)C(=O)N1Cc1ccc(CO)cc1 (stereo not shown) [16AF]
Ki (Table 2e, read-out: K4 HPLC): > 1000 nM

O=C1N(Cc2coc(CO)c2)C(Cc2ccccc2)C(O)C(O)C(Cc2ccccc2)N1Cc1coc(CO)c1 (stereo not shown) [Example 15FP]
Ki [5]: < 10 nM

C=CCN1C(=O)N(CC=C)C(CCCCCCCC)C(O)C(O)C1CCCCCCCC (stereo not shown) [Example 16AP]
Ki (Table 2e, read-out: K4 HPLC): 10 to 1000 nM

O=C1N(Cc2ccccc2)C(Cc2c[nH]c3ccccc23)C(O)C(O)C(Cc2c[nH]c3ccccc23)N1Cc1ccccc1 (stereo not shown) [Example 16Y]
Ki (Table 2e, read-out: K4 HPLC): 10 to 1000 nM

CC(=O)c1ccc(CN2C(=O)N(Cc3ccc(C(C)=O)cc3)C(Cc3ccccc3)C(O)C(O)C2Cc2ccccc2)cc1 (stereo not shown) [20J]
Ki (Table 2i, read-out: HPLC Ki): 10 to 1000 nM

CCCCCCN1C(=O)N(CCCCCC)C(C(C)C)C(O)C(O)C1C(C)C (stereo not shown) [Example 16X]
Ki (Table 2e, read-out: K4 HPLC): < 10 nM

O=C1N(Cc2ccc(CO)o2)C(Cc2ccccc2)C(O)C(O)C(Cc2ccccc2)N1Cc1ccc(CO)o1 (stereo not shown) [15FY]
Ki [5]: 10 to 1000 nM

NC(=NO)c1cccc(CN2C(=O)N(Cc3cccc(C(N)=NO)c3)C(Cc3cccs3)C(O)C(O)C2Cc2cccs2)c1 (stereo not shown) [16P]
Ki (Table 2e, read-out: K4 HPLC): < 10 nM

ON=C1N(Cc2ccccc2)C(Cc2ccccc2)C(O)C(O)C(Cc2ccccc2)N1Cc1ccccc1 (stereo not shown) [Example 17A]
Ki (Table 2f, read-out: HPLC Ki): 10 to 1000 nM | Ki (second table headed Table 2f, read-out: HPLC Ki): 10 to 1000 nM | Ki (third table headed Table 2f, read-out: HPLC Ki): 10 to 1000 nM

C=CCN1C(=O)N(CC=C)C(CC(C)C)C(O)C(O)C1CC(C)C (stereo not shown) [Example 16I]
Ki (read-out: K4 HPLC, Table 2e): < 10 nM

O=C1N(CC2CC2CO)C(Cc2ccccc2)C(O)C(O)C(Cc2ccccc2)N1CC1CC1CO (stereo not shown) [Example 12L]
Ki [1]: > 1000 nM

COCCOCO[C@@H]1C(=O)[C@@H](Cc2ccccc2)N(CC2CC2)C(=O)N(CC2CC2)[C@@H]1Cc1ccccc1 [Example 7AA]
Ki [2]: > 1000 nM

O=C(NCCN1CCOCC1)c1cccc(CN2C(Cc3ccccc3)C(O)C(O)C(Cc3ccccc3)N(Cc3cccc(C(=O)NCCN4CCOCC4)c3)S2(=O)=O)c1 (stereo not shown) [23Z]
Ki (Table 2m, read-out: HPLC Ki): 10 to 1000 nM

O=C(NCc1cccnc1)c1cccc(CN2C(=O)N(CC3CC3)C(Cc3ccccc3)C(O)C(O)C2Cc2ccccc2)c1 (stereo not shown) [15YD]
Ki [3]: < 10 nM

C=CCCC1C(O)C(O)C(CCC=C)N(Cc2ccccc2)C(=O)N1Cc1ccccc1 (stereo not shown) [Example 16AK]
Ki (Table 2e, read-out: K4 HPLC): > 1000 nM

O=C1N(CC2CC2c2ccccc2)C(Cc2ccccc2)C(O)C(O)C(Cc2ccccc2)N1CC1CC1c1ccccc1 (stereo not shown) [Example 14H]
Ki [1]: 10 to 1000 nM

CN1CCN(CCCN2C(=O)NC(Cc3ccccc3)C(O)C(O)C2Cc2ccccc2)CC1 (stereo not shown) [15AP]
Ki [3]: > 1000 nM

O=C1N(Cc2ccc(CO)cc2)[C@H](CCc2ccccc2)[C@@H](O)[C@@H](Cc2ccccc2)N1Cc1ccc(CO)cc1 [Example 8M]
Ki (read-out: Ki (HPLC), Table 1e, cells marked (HPLC)): < 10 nM

Nc1ncc(-c2cccc(CN3C(=O)N(Cc4cccc(-c5ccnc(N)n5)c4)C(Cc4ccccc4)C(O)C(O)C3Cc3ccccc3)c2)cn1 (stereo not shown) [15BB]
Ki [3]: 10 to 1000 nM

CCCCN1C(=O)N(CCCC)C(CC(C)C)C(O)C(O)C1CC(C)C (stereo not shown) [Example 16AE]
Ki (read-out: K4 HPLC, Table 2e): 10 to 1000 nM

COc1ccc(CC2C(O)C(O)C(Cc3ccc(OC)cc3)N(Cc3ccccc3)C(=O)N2Cc2ccccc2)cc1 (stereo not shown) [20AG]
Ki (Table 2i, read-out: HPLC Ki): < 10 nM

O=C1N(Cc2ccc(CO)cc2)C(Cc2ccc(F)cc2)C(O)C(O)C(Cc2ccc(F)cc2)N1Cc1ccc(CO)cc1 (stereo not shown) [20I]
Ki (Table 2i, read-out: HPLC Ki): < 10 nM

CC1C(O)C(O)C(C)N(Cc2ccccc2)C(=O)N1Cc1ccccc1 (stereo not shown) [Example 16G]
Ki (read-out: K4 HPLC, Table 2e): > 1000 nM

O=C1N(Cc2cccc(-c3cc[nH]n3)c2)C(Cc2ccccc2)C(O)C(O)C(Cc2ccccc2)N1Cc1cccc(-c2cc[nH]n2)c1 (stereo not shown) [Example 15XO]
Ki [3]: < 10 nM

O=C1N(CC2CC2)C(Cc2ccc3ccccc3c2)C(O)C(O)C(Cc2ccc3ccccc3c2)N1CC1CC1 (stereo not shown) [16L]
Ki (Table 2e, read-out: K4 HPLC): < 10 nM

CCCCC1C(O)C(O)C(CCCC)N(Cc2ccc(CO)cc2)C(=O)N1Cc1ccc(CO)cc1 (stereo not shown) [Example 16AT]
Ki (Table 2e, read-out: K4 HPLC): 10 to 1000 nM
